Results: paper PMC4926077, “Synthesis of Pelorol and Its Analogs and Their Inhibitory Effects on Phosphatidylinositol 3-Kinase” (Marine Drugs, 2016)
Read-outs that look alike come from different tables or passages of the source.

Columns and labels:
SK-BR-3 = test: Antiproliferative CCK8 assay, SK-BR-3; type: cell-based; conditions: Homo sapiens, 72 h incubation, average of three replicates, read-out: Relative IC50 against tumor cell line SK-BR-3
Description: (§1) The following cell lines, MCF-7, SK-BR-3, K562, Hela, MOLT-4, DU145, U937, and PC3 were purchased from Shanghai Cell Bank, Chinese Academy of Sciences. The cells were maintained at 37 °C in a 5% CO2 incubator in DMEM (Gibco, Invitrogen, Carlsbad, CA, USA) or RPMI1640 (Gibco, Invitrogen) containing 10% FBS. Cell proliferation was determined by CCK8 assay (DOjinDo, Kyoto, Japan). Cells were seeded at a density of 800–1000 cells/well in 384 well plates and treated with solvent control or various concentration of compounds. After 72 h incubation, CCK8 reagent was added and absorbance was measured at 450 nm by using Envision 2104 multi-label Reader (Perkin Elmer, Waltham, MA, USA). Dose-response curves were plotted to determine the IC50 values using Prism 5.0 (Graph Pad software Inc., San Diego, CA, USA).

U937 = test: Antiproliferative CCK8 assay, U937; type: cell-based; conditions: Homo sapiens, U-937, leukemia cell, 72 h incubation, average of three replicates, read-out: Relative IC50 against tumor cell line U937
Description: as §1

MCF-7 = test: Antiproliferative CCK8 assay, MCF-7; type: cell-based; conditions: Homo sapiens, MCF7, 72 h incubation, average of three replicates, read-out: Relative IC50 against tumor cell line MCF-7
Description: as §1

DU145 = test: Antiproliferative CCK8 assay, DU145; type: cell-based; conditions: Homo sapiens, DU-145, prostate cancer cell, 72 h incubation, average of three replicates, read-out: Relative IC50 against tumor cell line DU145
Description: as §1

MOLT-4 = test: Antiproliferative CCK8 assay, MOLT-4; type: cell-based; conditions: Homo sapiens, leukemia cell, 72 h incubation, average of three replicates, read-out: Relative IC50 against tumor cell line MOLT-4
Description: as §1

K562 = test: Antiproliferative CCK8 assay, K562; type: cell-based; conditions: Homo sapiens, 72 h incubation, average of three replicates, read-out: Relative IC50 against tumor cell line K562
Description: as §1

Hela = test: Antiproliferative CCK8 assay, Hela; type: cell-based; conditions: Homo sapiens, 72 h incubation, average of three replicates, read-out: Relative IC50 against tumor cell line Hela
Description: as §1

PI3Kα = PI3Kα (Homo sapiens, UniProt P42336); test: PI3K enzymatic activity assay (Kinase-Glo), PI3Kα; type: biochemical
Description: (§2) We assumed that electronic effects might influence the inhibitory activity of compounds against PI3Kα. […] PI3K reactions were performed in 50 mM HEPES at pH 7.5 with 1 mM EGTA, 100 mM NaCl, 3 mM MgCl2, 2 mM DTT, and 0.03% CHAPS. All tested compounds were dissolved in 100% DMSO. PIP2 and ATP were used as substrates, and the final reaction volume was 10 μL. […] After incubating for 1 h at room temperature, the reactions were quenched by adding 10 μL of Kinase-Glo reagent. Raw data were collected from Flexstation program.

PC3 = test: Antiproliferative CCK8 assay, PC3; type: cell-based; conditions: Homo sapiens, PC-3, 72 h incubation, average of three replicates, read-out: Relative IC50 against tumor cell line PC3
Description: as §1

PI3Kβ = PI3Kβ (Homo sapiens, UniProt P42338); test: PI3K enzymatic activity assay, PI3Kβ; type: biochemical
Description: as §2

PI3Kδ = PI3Kδ (Homo sapiens, UniProt O00329); test: PI3K enzymatic activity assay, PI3Kδ; type: biochemical
Description: as §2

PI3Kγ = PI3Kγ (Homo sapiens, UniProt P48736); test: PI3K enzymatic activity assay, PI3Kγ; type: biochemical
Description: as §2

[1] = average of three replicates, 25 μM ATP, 50 μM PIP2, 1 h, room temperature, read-out: IC50, inhibition against PI3Kα

Sequence of PI3Kα (P42336 whole entry, species assumed): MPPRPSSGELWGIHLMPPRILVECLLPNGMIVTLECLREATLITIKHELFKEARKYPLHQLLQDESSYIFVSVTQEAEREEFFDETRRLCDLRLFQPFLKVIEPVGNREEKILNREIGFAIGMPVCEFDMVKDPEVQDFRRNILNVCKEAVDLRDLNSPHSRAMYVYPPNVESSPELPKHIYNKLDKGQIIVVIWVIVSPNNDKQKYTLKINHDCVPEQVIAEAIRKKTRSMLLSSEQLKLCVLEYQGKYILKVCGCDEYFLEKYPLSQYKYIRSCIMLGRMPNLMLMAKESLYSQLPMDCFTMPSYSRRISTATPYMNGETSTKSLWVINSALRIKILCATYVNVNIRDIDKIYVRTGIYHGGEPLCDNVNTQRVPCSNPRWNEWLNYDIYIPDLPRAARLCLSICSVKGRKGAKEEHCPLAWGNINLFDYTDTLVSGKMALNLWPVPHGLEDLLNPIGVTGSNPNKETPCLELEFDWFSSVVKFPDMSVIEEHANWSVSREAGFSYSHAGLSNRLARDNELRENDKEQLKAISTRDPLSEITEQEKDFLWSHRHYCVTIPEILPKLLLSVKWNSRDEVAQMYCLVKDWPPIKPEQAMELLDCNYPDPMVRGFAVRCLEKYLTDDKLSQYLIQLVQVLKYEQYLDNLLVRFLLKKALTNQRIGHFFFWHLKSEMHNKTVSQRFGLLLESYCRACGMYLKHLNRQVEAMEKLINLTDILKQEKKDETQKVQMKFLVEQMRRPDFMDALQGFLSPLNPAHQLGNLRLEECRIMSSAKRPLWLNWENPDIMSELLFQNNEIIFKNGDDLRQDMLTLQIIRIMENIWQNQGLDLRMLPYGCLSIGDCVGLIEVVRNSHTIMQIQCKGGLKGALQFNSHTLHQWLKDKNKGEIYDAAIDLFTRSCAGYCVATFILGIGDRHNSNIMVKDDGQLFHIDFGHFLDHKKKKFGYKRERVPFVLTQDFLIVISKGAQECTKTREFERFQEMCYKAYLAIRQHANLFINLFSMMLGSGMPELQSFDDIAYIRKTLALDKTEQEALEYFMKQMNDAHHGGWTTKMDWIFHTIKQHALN
Sequence of PI3Kα (P27986 whole entry partner, species assumed): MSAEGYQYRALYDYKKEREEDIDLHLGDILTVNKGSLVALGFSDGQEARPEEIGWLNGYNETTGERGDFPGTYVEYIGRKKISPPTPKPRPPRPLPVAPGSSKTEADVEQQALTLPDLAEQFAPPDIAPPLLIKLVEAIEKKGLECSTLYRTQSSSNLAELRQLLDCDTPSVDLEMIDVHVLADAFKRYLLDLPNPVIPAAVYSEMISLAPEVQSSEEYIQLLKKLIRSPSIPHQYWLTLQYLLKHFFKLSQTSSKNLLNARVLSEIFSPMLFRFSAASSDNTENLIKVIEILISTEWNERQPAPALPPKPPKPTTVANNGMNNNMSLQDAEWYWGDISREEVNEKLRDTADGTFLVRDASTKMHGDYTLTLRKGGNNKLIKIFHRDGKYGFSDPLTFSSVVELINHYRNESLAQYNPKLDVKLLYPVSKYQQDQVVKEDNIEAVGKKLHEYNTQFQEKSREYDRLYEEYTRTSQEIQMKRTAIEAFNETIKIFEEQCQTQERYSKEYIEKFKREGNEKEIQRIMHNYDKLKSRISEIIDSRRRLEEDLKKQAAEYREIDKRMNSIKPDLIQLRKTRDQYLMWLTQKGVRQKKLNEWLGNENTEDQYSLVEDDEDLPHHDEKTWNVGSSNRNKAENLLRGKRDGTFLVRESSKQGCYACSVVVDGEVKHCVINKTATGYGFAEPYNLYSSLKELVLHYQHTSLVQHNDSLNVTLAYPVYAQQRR
Sequence of PI3Kδ (O00329 whole entry, species assumed): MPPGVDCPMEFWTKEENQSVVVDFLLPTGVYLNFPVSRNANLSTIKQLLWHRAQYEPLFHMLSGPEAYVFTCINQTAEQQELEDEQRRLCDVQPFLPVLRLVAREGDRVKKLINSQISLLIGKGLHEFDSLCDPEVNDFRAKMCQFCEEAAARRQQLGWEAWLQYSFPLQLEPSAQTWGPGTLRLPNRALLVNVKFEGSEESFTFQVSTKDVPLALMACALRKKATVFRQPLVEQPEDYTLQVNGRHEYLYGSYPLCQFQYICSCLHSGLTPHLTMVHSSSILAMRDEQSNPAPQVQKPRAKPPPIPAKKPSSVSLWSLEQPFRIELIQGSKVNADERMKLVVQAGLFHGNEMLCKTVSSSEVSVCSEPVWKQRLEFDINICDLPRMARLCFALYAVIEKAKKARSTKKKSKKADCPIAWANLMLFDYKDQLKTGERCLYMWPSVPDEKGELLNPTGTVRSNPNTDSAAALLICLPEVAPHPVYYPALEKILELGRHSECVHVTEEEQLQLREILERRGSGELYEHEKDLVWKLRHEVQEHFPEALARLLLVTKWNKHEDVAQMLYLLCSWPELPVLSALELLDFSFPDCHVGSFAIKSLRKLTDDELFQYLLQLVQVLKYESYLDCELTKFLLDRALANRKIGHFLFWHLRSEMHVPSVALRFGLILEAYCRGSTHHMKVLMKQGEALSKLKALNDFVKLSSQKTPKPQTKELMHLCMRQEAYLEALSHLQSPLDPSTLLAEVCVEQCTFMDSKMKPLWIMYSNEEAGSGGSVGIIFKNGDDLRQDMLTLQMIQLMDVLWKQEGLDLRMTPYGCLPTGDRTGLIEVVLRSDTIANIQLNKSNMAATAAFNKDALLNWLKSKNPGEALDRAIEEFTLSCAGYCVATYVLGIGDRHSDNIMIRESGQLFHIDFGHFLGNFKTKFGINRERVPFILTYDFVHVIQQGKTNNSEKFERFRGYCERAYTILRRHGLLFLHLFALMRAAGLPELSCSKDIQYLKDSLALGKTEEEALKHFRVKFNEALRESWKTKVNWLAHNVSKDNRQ
Sequence of PI3Kδ (P27986 whole entry partner, species assumed): as the sequence (P27986 whole entry partner, species assumed) above
Sequence of PI3Kβ (P42338 whole entry, species assumed): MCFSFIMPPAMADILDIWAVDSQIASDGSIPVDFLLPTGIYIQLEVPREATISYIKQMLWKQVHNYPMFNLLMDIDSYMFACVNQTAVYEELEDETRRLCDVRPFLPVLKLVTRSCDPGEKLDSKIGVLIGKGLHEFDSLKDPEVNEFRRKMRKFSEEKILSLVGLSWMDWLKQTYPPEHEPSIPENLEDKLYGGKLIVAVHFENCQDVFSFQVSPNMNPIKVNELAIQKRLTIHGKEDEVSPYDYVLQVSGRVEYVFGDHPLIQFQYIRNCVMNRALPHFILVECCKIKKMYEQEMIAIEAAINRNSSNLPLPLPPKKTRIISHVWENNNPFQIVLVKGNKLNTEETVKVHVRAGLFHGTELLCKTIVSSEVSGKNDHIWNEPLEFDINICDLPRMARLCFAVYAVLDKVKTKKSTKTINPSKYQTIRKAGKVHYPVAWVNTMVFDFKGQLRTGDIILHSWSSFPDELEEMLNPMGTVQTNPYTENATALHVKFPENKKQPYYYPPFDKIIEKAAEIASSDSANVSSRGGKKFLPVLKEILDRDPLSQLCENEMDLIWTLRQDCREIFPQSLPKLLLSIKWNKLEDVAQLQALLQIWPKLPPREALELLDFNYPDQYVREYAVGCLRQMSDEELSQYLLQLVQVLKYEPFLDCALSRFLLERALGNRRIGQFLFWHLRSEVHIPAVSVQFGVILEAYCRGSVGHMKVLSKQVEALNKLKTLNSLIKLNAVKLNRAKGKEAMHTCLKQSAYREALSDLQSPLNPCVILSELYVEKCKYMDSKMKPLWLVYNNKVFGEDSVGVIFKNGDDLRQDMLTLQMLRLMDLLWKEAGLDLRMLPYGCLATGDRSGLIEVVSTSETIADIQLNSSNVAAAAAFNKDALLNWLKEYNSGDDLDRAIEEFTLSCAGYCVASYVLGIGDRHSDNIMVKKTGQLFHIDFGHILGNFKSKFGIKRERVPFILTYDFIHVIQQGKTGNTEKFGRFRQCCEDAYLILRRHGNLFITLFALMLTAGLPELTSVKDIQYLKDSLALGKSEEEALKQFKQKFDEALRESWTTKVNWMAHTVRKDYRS
Sequence of PI3Kβ (P27986 whole entry partner, species assumed): as the sequence (P27986 whole entry partner, species assumed) above
Sequence of PI3Kγ (P48736 whole entry, species assumed): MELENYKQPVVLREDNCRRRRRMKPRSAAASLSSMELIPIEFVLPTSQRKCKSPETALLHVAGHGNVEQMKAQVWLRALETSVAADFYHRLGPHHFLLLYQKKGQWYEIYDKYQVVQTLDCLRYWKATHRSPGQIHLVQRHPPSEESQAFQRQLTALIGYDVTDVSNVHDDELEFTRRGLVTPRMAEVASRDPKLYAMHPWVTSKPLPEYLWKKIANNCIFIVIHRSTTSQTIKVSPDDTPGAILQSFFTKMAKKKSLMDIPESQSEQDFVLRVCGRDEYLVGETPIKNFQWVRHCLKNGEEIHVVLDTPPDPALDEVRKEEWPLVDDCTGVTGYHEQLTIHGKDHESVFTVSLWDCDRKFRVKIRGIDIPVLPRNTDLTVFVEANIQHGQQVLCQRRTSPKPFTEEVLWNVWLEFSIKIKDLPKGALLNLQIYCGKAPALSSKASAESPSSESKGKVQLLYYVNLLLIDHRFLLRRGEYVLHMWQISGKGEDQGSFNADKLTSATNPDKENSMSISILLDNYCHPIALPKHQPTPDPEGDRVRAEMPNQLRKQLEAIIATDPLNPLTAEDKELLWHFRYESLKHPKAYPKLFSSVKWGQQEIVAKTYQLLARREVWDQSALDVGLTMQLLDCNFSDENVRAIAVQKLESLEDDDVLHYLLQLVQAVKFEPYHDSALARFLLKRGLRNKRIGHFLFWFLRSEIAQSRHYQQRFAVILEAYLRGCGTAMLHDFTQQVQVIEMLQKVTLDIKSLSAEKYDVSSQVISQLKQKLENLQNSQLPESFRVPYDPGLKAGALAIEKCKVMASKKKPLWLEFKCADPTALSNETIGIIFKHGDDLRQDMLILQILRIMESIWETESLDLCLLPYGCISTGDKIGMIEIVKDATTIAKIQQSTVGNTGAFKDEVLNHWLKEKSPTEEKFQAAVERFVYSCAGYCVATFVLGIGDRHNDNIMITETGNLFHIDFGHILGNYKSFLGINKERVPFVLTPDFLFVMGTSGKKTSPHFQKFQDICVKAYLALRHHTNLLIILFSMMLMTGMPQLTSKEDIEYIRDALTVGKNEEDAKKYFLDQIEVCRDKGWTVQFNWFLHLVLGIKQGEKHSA

| Structure (SMILES) | IC50 (SK-BR-3) [µM] | IC50 (U937) [µM] | IC50 (MCF-7) [µM] | IC50 (DU145) [µM] | IC50 (MOLT-4) [µM] | IC50 (K562) [µM] | IC50 (Hela) [µM] | IC50 (PI3Kα; [1]) [µM] | IC50 (PC3) [µM] | IC50 (PI3Kα) [µM] | IC50 (PI3Kβ) [µM] | IC50 (PI3Kδ) [µM] | IC50 (PI3Kγ) [µM] |
| --- | --- | --- | --- | --- | --- | --- | --- | --- | --- | --- | --- | --- | --- |
| CC1(C)CCC[C@]2(C)[C@H]3Cc4c(O)c(O)cc(C#N)c4[C@]3(C)CC[C@@H]12 [Compound 6, (4aS,6aR,11aR,11bS)-9,10-diHydroxy-4,4,6a,11b-tetramethyl-2,3,4,4a,5,6,6a,11,11a,11b-decahydro-1H-benzo[a]fluorene-7-carbonitrile] | > 30 | 12.8 | 16.5 | 8.13 | 2.89 | > 30 | 12.1 | 49.5 | > 30 |  |  |  |  |
| CC(=O)c1cc(O)c(O)c2c1[C@]1(C)CC[C@H]3C(C)(C)CCC[C@]3(C)[C@H]1C2 [Compound 3, 1-((4aS,6aR,11aR,11bS)-9,10-diHydroxy-4,4,6a,11b-tetramethyl-2,3,4,4a,5,6,6a,11,11a,11b-decahydro-1H-benzo[a]fluoren-7-yl)ethanone] | > 30 | > 30 | > 30 | > 30 | 22.3 | > 30 | > 30 | 8.76 | > 30 |  |  |  |  |
| CCc1cc(O)c(O)c2c1[C@]1(C)CC[C@H]3C(C)(C)CCC[C@]3(C)[C@H]1C2 [Compound 4, (4aS,6aR,11aR,11bS)-7-Ethyl-4,4,6a,11b-tetramethyl-2,3,4,4a,5,6,6a,11,11a,11b-decahydro-1H-benzo [a]fluorene-9,10-diol] | > 30 | > 30 | > 30 | > 30 | > 30 | > 30 | > 30 | 83.7 | > 30 |  |  |  |  |
| COC(=O)c1cc(O)c(O)c2c1[C@]1(C)CC[C@H]3C(C)(C)CCC[C@]3(C)[C@H]1C2 [Compound 1, Pelorol] | > 30 | > 30 | > 30 | 72.7 | > 30 | > 30 | > 30 |  | > 30 | 38.2 |  |  |  |
| CCc1cc(OC)c(OC)c2c1[C@]1(C)CC[C@H]3C(C)(C)CCC[C@]3(C)[C@H]1C2 [Compound 20, (4aS,6aR,11aR,11bS)-7-Ethyl-9,10-diMethoxy-4,4,6a,11b-tetramethyl-2,3,4,4a,5,6,6a,11,11a,11b-decahydro-1H-benzo[a]fluorene] |  |  |  |  |  |  |  | > 100 |  |  |  |  |  |
| CC1(C)CCC[C@]2(C)[C@H]3Cc4c(O)c(O)cc(C=O)c4[C@]3(C)CC[C@@H]12 [Compound 5, (4aS,6aR,11aR,11bS)-9,10-diHydroxy-4,4,6a,11b-tetramethyl-2,3,4,4a,5,6,6a,11,11a,11b-decahydro-1H-benzo[a]fluorene-7-carbaldehyde] | 19.1 | 5.99 | 38.9 | 9.01 | 4.27 | 16.1 | 13.2 | 5.06 | 18.4 |  | 8.9 | > 100 | > 100 |
| CC1(C)CCC[C@]2(C)[C@H]3Cc4c(O)c(O)cc(C(=O)O)c4[C@]3(C)CC[C@@H]12 [Compound 2, (4aS,6aR,11aR,11bS)-9,10-diHydroxy-4,4,6a,11b-tetramethyl-2,3,4,4a,5,6,6a,11,11a,11b-decahydro-1H-benzo[a]fluorene-7-carboxylic acid] |  |  | > 30 | > 30 |  | > 30 |  | 20.7 | > 30 |  |  |  |  |
